According to patent publication US7544708B2, “Azabicyclo derivatives as muscarinic receptor antagonists” (Ranbaxy Laboratories Limited, priority 2002, dated 2009):
Where a name gives a salt, the structure may show the parent alone. Read-outs that look alike come from different tables or passages of the source.

Columns and labels:
[1] = biological target: T1, M3 muscarinic receptor subtype (rat submandibular gland) (Rattus norvegicus, UniProt P08483); assay: Radioligand binding assay, [3H]-N-methylscopolamine, M3
T1 construct: Submandibular glands and heart were isolated and placed in ice cold homogenising buffer; from tissue; host or cells: rat submandibular gland membranes
Procedure: (§1) The membrane preparation was done with the following modifications: a low spin step of 500 g for 10 minutes at 4° C. was used; the buffer was 20 mM HEPES, 10 mM EDTA, at pH 7.4; the high speed spin was done at 40,000 g and the homogenate was passed through a filter gauge before any spinning.
(§2) Membrane preparation: Submandibular glands and heart were isolated and placed in ice cold homogenising buffer (HEPES 20 mM, 10 mM EDTA, pH 7.4) immediately after sacrifice. The tissues were homogenised in 10 volumes of homogenising buffer and the homogenate was filtered through two layers of wet gauze and filtrate was centrifuged at 500 g for 10 min. The supernatant was subsequently centrifuged at 40,000 g for 20 min. The pellet thus obtained was resuspended in same volume of assay buffer (HEPES 20 mM, EDTA 5 mM, pH 7.4) and were stored at −700C until the time of assay.
(§3) Ligand binding assay: The compounds were dissolved and diluted in DMSO. The membrane homogenates (150-250 μg protein) were incubated in 250 μl of assay buffer (HEPES 20 mM, pH 7.4) at 24-25° C. for 3 h. […] The incubation was terminated by vacuum filtration over GF/B fiber filters (Wallac). The filters were then washed with ice cold 50 mM Tris HCl buffer (pH 7.4). The filter mats were dried and bound radioactivity retained on filters was counted. The IC50 and Kd were estimated by using the non-linear curve fitting program using G Pad Prism software.

[2] = biological target: T2, M2 muscarinic receptor subtype (rat heart) (Rattus norvegicus, UniProt P10980); assay: Radioligand binding assay, [3H]-N-methylscopolamine, M2
T2 construct: Submandibular glands and heart were isolated and placed in ice cold homogenising buffer; from tissue; host or cells: rat heart membranes
T2 sequence (P10980 1-466): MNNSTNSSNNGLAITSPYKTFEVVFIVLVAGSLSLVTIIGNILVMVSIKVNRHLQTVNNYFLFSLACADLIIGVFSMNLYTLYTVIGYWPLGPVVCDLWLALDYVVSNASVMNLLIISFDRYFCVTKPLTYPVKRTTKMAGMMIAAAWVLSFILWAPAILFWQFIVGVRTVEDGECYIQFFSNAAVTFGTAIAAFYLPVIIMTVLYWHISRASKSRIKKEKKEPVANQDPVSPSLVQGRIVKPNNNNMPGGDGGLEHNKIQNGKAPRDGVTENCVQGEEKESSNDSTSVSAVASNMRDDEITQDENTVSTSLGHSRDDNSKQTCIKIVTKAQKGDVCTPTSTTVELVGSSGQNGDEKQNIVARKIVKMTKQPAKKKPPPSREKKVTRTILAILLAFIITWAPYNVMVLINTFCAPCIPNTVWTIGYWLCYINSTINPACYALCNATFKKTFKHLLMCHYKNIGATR
Procedure: as §1, §2, §3

[3] = tested on: carbachol evoked changes on bladder pressure, heart rate and salivation; assay: In vivo experiments using anesthetized rabbit; conditions: for ID50 Bladder Pressure / ID50 Heart Rate Response / ID50 Salivary Response: carbachol 1.5 μg/kg intrarterial, i.v. test compound; for Fold Selectivity Bladder versus Heart Rate / Fold Selectivity Bladder versus Salivary: from ID50 values
Procedure: In vivo experiments using anesthetized rabbit: The effect of test substances was studied on carbachol evoked changes on bladder pressure, heart rate and salivation. Male rabbits weighing 1.2-3 kg were anaesthetized with urethane (1.5 g/kg), and administered as a slow intravenous infusion through the marginal ear vein. The tracheae were cannulated to maintain airway patency. Blood pressure was recorded from the femoral artery by means of a Statham P10 EZ pressure transducer connected to a Grass model 7D polygraph. The heart rate was monitored by a tachograph triggered by the pulse wave of blood pressure. The other femoral artery was cannulated for the administration of carbachol. Test compound and saline were infused intravenously via the femoral vein.
The bladder was exposed through a midline laparotomy and both the ureters were identified, carefully separated and ligated. The ureters were incised proximally to allow free flow of urine from the kidney to the exterior. Bladder neck was gently held and the urethra was traced and separated from the adjoining tissues. PE canula was introduced into the bladder and ligated. The bladder was drained and subsequently filled with 15 ml of warm saline (37° C.). The other end of the intravesical catheter was connected to the Grass model 7D polygraph through a Statham P10 EZ pressure transducer to monitor the bladder pressure. Care was taken to keep the exposed area moist and warm. A period of 30-60 min was allowed for stabilization of parameters subsequent to surgery. Salivation response was assessed by placing preweighed absorbent cotton gauze in the buccal cavity for 2 minutes after carbachol administration.
At least two stable responses were obtained. These responses were considered as 100%. Subsequently, effect of increasing dose of test compound or vehicle (i.v,12 to 15 min before carbachol challenge) was studied.
The change in bladder pressure, salivation and agonist induced bradycardia were expressed as % change from pretreatment control.

[4] = Receptor Binding Assay M3 Pki, [3H]-N-methylscopolamine, rat submandibular gland membranes
[5] = Receptor Binding Assay M2 pKi, [3H]-N-methylscopolamine, rat heart membranes

T1 sequence (P08483 whole entry): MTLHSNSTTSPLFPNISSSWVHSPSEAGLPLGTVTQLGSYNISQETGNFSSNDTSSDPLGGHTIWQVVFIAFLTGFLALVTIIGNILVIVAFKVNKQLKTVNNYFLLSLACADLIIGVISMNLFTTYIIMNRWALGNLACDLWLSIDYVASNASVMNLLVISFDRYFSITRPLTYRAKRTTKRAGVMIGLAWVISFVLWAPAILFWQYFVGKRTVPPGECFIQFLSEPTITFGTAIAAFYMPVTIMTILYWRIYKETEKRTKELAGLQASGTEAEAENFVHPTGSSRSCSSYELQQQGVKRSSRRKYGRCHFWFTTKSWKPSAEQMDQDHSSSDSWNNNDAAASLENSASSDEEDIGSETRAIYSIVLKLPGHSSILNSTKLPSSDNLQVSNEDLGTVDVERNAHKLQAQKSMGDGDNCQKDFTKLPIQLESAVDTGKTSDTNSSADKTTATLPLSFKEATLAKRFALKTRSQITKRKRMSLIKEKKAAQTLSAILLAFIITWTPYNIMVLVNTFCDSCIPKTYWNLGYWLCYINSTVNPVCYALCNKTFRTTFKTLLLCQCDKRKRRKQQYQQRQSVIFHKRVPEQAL

SMILES	Ki ([1]; Receptor Binding Assay M3 Pki)	Ki ([2]; Receptor Binding Assay M2 pKi)	also measured
CN(C[C@H]1[C@@H]2CNC[C@@H]21)C(=O)C(O)(c1ccccc1)C1CCCC1 (mixture of isomers) [Compound 18, (2R,2S) (1α,5α,6α)-N-[3-azabicyclo[3.1.0]hex-6-ylmethyl)-2-cyclopentyl-2-hydroxy-N-methyl-2-phenyl acetamide]	0.38 nM	2.75 nM	–
O=C(NC[C@H]1[C@@H]2CNC[C@@H]21)[C@@](O)(c1ccccc1)C1CCCC1 [Compound 5, (2S)-(1α,5α,6α)-N-[3-azabicyclo[3.1.0]hexyl-6-(aminomethyl)-yl]-2-hydroxy-2-cyclopentyl 2-phenyl acetamide]	31.6 nM	158 nM	–
O=C(NC[C@H]1[C@@H]2CNC[C@@H]21)[C@@](O)(c1ccccc1)C1CCCC1 [Compound 6, (2S)-(1α,5α,6α)-N-[3-azabicyclo[3.1.0]hexyl-6-(aminomethyl)-yl]-2-hydroxy-2-cyclopentyl 2-phenyl acetamide hydrochloride salt]	13.2 nM	77.6 nM	–
COC(C(=O)NC[C@H]1[C@@H]2CNC[C@@H]21)(c1ccccc1)C1CCCC1 (mixture of isomers) [Compound 7, (2R,2S) (1α,5α,6α)-N-[3-azabicyclo[3.1.0]hexyl-6-(aminomethyl)-yl]-2-methoxy-2-cyclopentyl-2-phenyl acetamide]	–	–	Ki ([1]; [3H]-N-methylscopolamine, rat submandibular gland membranes, read-out: Receptor Binding Assay M3 Pki (converted)): 2.45 nM; Ki ([2]; [3H]-N-methylscopolamine, rat heart membranes, read-out: Receptor Binding Assay M2 pKi (converted)): 25.1 nM
O=C(NCC1C2CNCC21)C(O)(c1ccccc1)C1CCC(F)(F)C1 (mixture of isomers) [Compound 13, (2R,2S) (1α,5α,6α)-N-[3-azabicyclo[3.1.0]hexyl-6-(aminomethyl)-yl]-2-hydroxy-2-(3,3-difluorocyclopentyl)-2-phenyl acetamide]	2 nM	50.1 nM	–
O=C(NC[C@H]1[C@@H]2CNC[C@@H]21)[C@](O)(c1ccccc1)C1CCC(F)(F)C1 (single isomer, unassigned) [Compound 11]	1.26 nM	39.8 nM	–
O=C(NCC1C2CNCC21)C(O)(c1ccccc1)C1CCC(F)(F)C1 (mixture of isomers) [Compound 14, (2R,2S) (1α,5α,6α)-N-[3-azabicyclo[3.1.0]hexyl-6-(aminomethyl)-yl]-2-hydroxy-2-(3,3-difluorocyclopentyl)-2-phenyl acetamide tartarate salt]	1.35 nM	72.4 nM	–
O=C(NCC1C2CNCC21)C(O)(c1ccccc1)C1CCC1 [Compound 9, (2R,2S) (1α,5α,6α)-N-[3-azabicyclo[3.1.0]hexyl-6-(aminomethyl)-yl]-2-hydroxy-2-cyclobutyl-2-phenyl acetamide]	1.26 nM	9.55 nM	–
O=C(NC[C@H]1[C@@H]2CNC[C@@H]21)C(O)(c1ccccc1)C1CCCC1 (mixture of isomers) [Compound 1, (2R,2S) (1α,5α,6α)-N-[3-azabicyclo[3.1.0]hexyl-6-(aminomethyl)-yl]-2-hydroxy-2-cyclopentyl-2-phenyl acetamide]	0.525 nM	12 nM	melting point: 149 to 151 °C
O=C(NCC1C2CNCC21)C(O)(c1ccccc1)C1CCC1 [Compound 10, (2R,2S) (1α,5α,6α)-N-[3-azabicyclo[3.1.0]hexyl-6-(aminomethyl)-yl]-2-hydroxy-2-cyclobutyl-2-phenyl acetamide tartarate salt]	0.316 nM	6.31 nM	–
O=C(NC[C@H]1[C@@H]2CNC[C@@H]21)C(O)(c1ccccc1)C1CCCC1 (mixture of isomers) [Compound 2, (2R,2S) (1α,5α,6α)-N-[3-azabicyclo[3.1.0]hexyl-6-(aminomethyl)-yl]-2-hydroxy-2-cyclopentyl-2-phenyl acetamide hydrochloride salt]	0.316 nM	4.37 nM	ID50 Bladder Pressure [3]: 3.93 ± 1.1 μg/kg, i.v; ID50 Heart Rate Response [3]: 21.13 ± 4.47 μg/kg, i.v; ID50 Salivary Response [3]: 7.67 ± 1.19 μg/kg, i.v; Fold Selectivity Bladder versus Heart Rate [3]: 12.6 ± 5.7; Fold Selectivity Bladder versus Salivary [3]: 3.08 ± 0.94
Cc1ccc(O)c([C@H](CCN(C(C)C)C(C)C)c2ccccc2)c1 [Tolterodine, reference compound]	–	–	ID50 Bladder Pressure [3]: 25.84 ± 4.24 μg/kg, i.v; ID50 Heart Rate Response [3]: 32.54 ± 5.77 μg/kg, i.v; ID50 Salivary Response [3]: 32.5 ± 10.02 μg/kg, i.v
O=C(NC[C@H]1[C@@H]2CNC[C@@H]21)C(O)(c1ccccc1)C1CCCCCC1 (mixture of isomers) [Compound 8, (2R,2S) (1α,5α,6α)-N-[3-azabicyclo[3.1.0]hexyl-6-(aminomethyl)-yl]-2-hydroxy-2-cycloheptyl-2-phenyl acetamide]	1.48 nM	44.7 nM	–
O=C(NC[C@H]1[C@@H]2CNC[C@@H]21)C(O)(c1ccccc1)c1ccccc1 [Compound 16, (2R,2S) (1α,5α,6α)-N-[3-azabicyclo[3.1.0]hexyl-6-(aminomethyl)-yl]-2-hydroxy-2,2-diphenyl acetamide]	–	–	Ki [1, 4]: 0.389 nM; Ki [2, 5]: 11.2 nM
O=C(NC[C@H]1[C@@H]2CNC[C@@H]21)C(O)(c1ccccc1)C1CCCCC1 (mixture of isomers) [Compound 17, (2R,2S) (1α,5α,6α)-N-[3-azabicyclo[3.1.0]hexyl-6-(aminomethyl)-yl]-2-hydroxy-2-cyclohexyl-2-phenyl acetamide]	1.35 nM	50.1 nM	–
O=C(NC[C@H]1[C@@H]2CNC[C@@H]21)[C@](O)(c1ccccc1)C1CCCC1 [Compound 4, (2R)-(1α,5α,6α)-N-[3-azabicyclo[3.1.0]hexyl-6-(aminomethyl)-yl]-2-hydroxy-2-cyclopentyl 2-phenyl acetamide hydrochloride salt]	0.224 nM	3.72 nM	ID50 Bladder Pressure [3]: 2.14 ± 0.42 μg/kg, i.v; ID50 Heart Rate Response [3]: 5.65 ± 0.86 μg/kg, i.v; ID50 Salivary Response [3]: 4.66 ± 0.56 μg/kg, i.v; Fold Selectivity Bladder versus Heart Rate [3]: 3.43 ± 1.02; Fold Selectivity Bladder versus Salivary [3]: 2.37 ± 0.22
O=C(NCC1C2CNCC21)C(O)(c1ccccc1)C1CCC(F)C1 (mixture of isomers) [Compound 12, (2R,2S) (1α,5α,6α)-N-[3-azabicyclo[3.1.0]hexyl-6-(aminomethyl)-yl]-2-hydroxy-2-(3-fluorocyclopentyl)-2-phenyl acetamide]	0.912 nM	25.1 nM	–
O=C(OC[C@H]1[C@@H]2CNC[C@@H]21)C(O)(c1ccccc1)c1ccccc1 [Compound 15, (2R,2S) (1α,5α,6α)-N-[3-azabicyclo[3.1.0]hexyl-6-(aminomethyl)-yl]-2-hydroxy-2,2-diphenyl acetate]	–	–	Ki [1, 4]: 0.0661 nM; Ki [2, 5]: 0.219 nM
